Test results published in ChEMBL document CHEMBL1201862, “PubChem BioAssay data set” (2004).
Where a name gives a salt, the structure may show the parent alone.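 Tested at 5 concentrations; 48 h exposure; 96-well plates; endpoints linearly interpolated, else capped at highest concentration. GI50: concentration for 50% inhibition of growth.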 Activity calls are given as the source filed them. No stated cut-off is given here; in the data, active = GI50 up to about 1.1 µM and inactive = higher.

Tests used:
Assay in all cases: NCI anticancer screen, dose series, 48 h
[1] = tested on: SNB-75
[2] = tested on: SF-295
[3] = tested on: HOP-62
[4] = tested on: HL-60
[5] = tested on: SK-MEL-28
[6] = tested on: ACHN
[7] = tested on: TK-10
[8] = tested on: U-251
[9] = tested on: OVCAR-3
[10] = tested on: OVCAR-5
[11] = tested on: IGROV-1
[12] = tested on: SW-620
[13] = tested on: COLO 205
[14] = tested on: UACC-62
[15] = tested on: UO-31
[16] = tested on: SR
[17] = tested on: SF-539
[18] = tested on: SK-OV-3
[19] = tested on: HCC 2998
[20] = tested on: RPMI-8226

SMILES	GI50 [1]	GI50 [2]	GI50 [3]	GI50 [4]	GI50 [5]	GI50 [6]	GI50 [7]	GI50 [8]	GI50 [9]	GI50 [10]	GI50 [11]	GI50 [12]	GI50 [13]	GI50 [14]	GI50 [15]	GI50 [16]	GI50 [17]	GI50 [18]	GI50 [19]	GI50 [20]
O=C1NC2(CCCC2)/C(=N\O)C12CCCC2	> 100 µM (inactive)	> 100 µM (inactive)	> 100 µM (inactive)	> 100 µM (inactive)	> 100 µM (inactive)	> 100 µM (inactive)	> 100 µM (inactive)	> 100 µM (inactive)	> 100 µM (inactive)	> 100 µM (inactive)	> 100 µM (inactive)	> 100 µM (inactive)	> 100 µM (inactive)	> 100 µM (inactive)	> 100 µM (inactive)	> 100 µM (inactive)	> 100 µM (inactive)	> 100 µM (inactive)	–	–
CCOc1cn(C2OC(CO)C(O)C2O)c(=O)[nH]c1=O (stereo unspecified)	> 100 µM (inactive)	> 100 µM (inactive)	> 100 µM (inactive)	> 100 µM (inactive)	> 100 µM (inactive)	> 100 µM (inactive)	> 100 µM (inactive)	20.3 µM (inactive)	> 100 µM (inactive)	> 100 µM (inactive)	> 100 µM (inactive)	31.3 µM (inactive)	95.5 µM (inactive)	> 100 µM (inactive)	> 100 µM (inactive)	–	–	> 100 µM (inactive)	> 100 µM (inactive)	> 100 µM (inactive)
Oc1cc(-c2ccccc2)nc2cc(Cl)ccc12	0.352 µM (active)	0.368 µM (active)	1.31 µM (inactive)	0.24 µM (active)	17.9 µM (inactive)	0.914 µM (active)	27.7 µM (inactive)	0.509 µM (active)	–	> 100 µM (inactive)	0.54 µM (active)	0.34 µM (active)	0.697 µM (active)	0.294 µM (active)	5.06 µM (inactive)	–	0.412 µM (active)	0.493 µM (active)	0.897 µM (active)	0.422 µM (active)
O=S(=O)(O)c1ccc2c(/N=N\c3ccc(F)cc3)c(O)c(S(=O)(=O)O)cc2c1	> 100 µM (inactive)	> 100 µM (inactive)	> 100 µM (inactive)	< 0.01 µM (active)	> 100 µM (inactive)	> 100 µM (inactive)	> 100 µM (inactive)	> 100 µM (inactive)	> 100 µM (inactive)	> 100 µM (inactive)	> 100 µM (inactive)	> 100 µM (inactive)	> 100 µM (inactive)	> 100 µM (inactive)	> 100 µM (inactive)	> 100 µM (inactive)	–	> 100 µM (inactive)	–	> 100 µM (inactive)
CCOC(=O)c1c(SCC#N)n(-c2ccccc2)c(=S)n(-c2ccccc2)c1=O	25.8 µM (inactive)	32.1 µM (inactive)	88.1 µM (inactive)	55.6 µM (inactive)	57.9 µM (inactive)	28.1 µM (inactive)	> 100 µM (inactive)	33 µM (inactive)	33.7 µM (inactive)	> 100 µM (inactive)	30.8 µM (inactive)	29.9 µM (inactive)	61.7 µM (inactive)	23.3 µM (inactive)	37.5 µM (inactive)	44 µM (inactive)	–	35.9 µM (inactive)	–	35.5 µM (inactive)
O=C(N/N=C/c1ccc([N+](=O)[O-])cc1)c1cccc2nc3ccccc3nc12	> 100 µM (inactive)	78.2 µM (inactive)	1.74 µM (inactive)	> 100 µM (inactive)	> 100 µM (inactive)	> 38.5 µM (inactive)	> 38 µM (inactive)	41.5 µM (inactive)	> 100 µM (inactive)	> 86.1 µM (inactive)	> 100 µM (inactive)	> 100 µM (inactive)	2.65 µM (inactive)	> 100 µM (inactive)	> 71.4 µM (inactive)	> 39.5 µM (inactive)	> 38.5 µM (inactive)	> 56.9 µM (inactive)	–	> 100 µM (inactive)
COC(=O)C1=CCS(=O)(=O)C1	> 100 µM (inactive)	> 100 µM (inactive)	> 100 µM (inactive)	> 100 µM (inactive)	> 100 µM (inactive)	> 100 µM (inactive)	> 100 µM (inactive)	–	> 100 µM (inactive)	> 100 µM (inactive)	> 100 µM (inactive)	> 100 µM (inactive)	> 100 µM (inactive)	> 100 µM (inactive)	> 100 µM (inactive)	–	> 100 µM (inactive)	> 100 µM (inactive)	> 100 µM (inactive)	> 100 µM (inactive)
NCCOCn1cc(Cc2cccc(OCc3ccccc3)c2)c(=O)[nH]c1=O	79.8 µM (inactive)	> 100 µM (inactive)	–	55.5 µM (inactive)	> 100 µM (inactive)	> 10 µM (inactive)	> 100 µM (inactive)	> 100 µM (inactive)	> 100 µM (inactive)	–	> 100 µM (inactive)	> 100 µM (inactive)	92.5 µM (inactive)	> 100 µM (inactive)	> 100 µM (inactive)	–	> 100 µM (inactive)	> 100 µM (inactive)	42.2 µM (inactive)	> 100 µM (inactive)
Cc1nccc2c1[nH]c1cc(O)ccc12 [HARMOL HYDROCHLORIDE]	33 µM (inactive)	33 µM (inactive)	91.6 µM (inactive)	29 µM (inactive)	> 100 µM (inactive)	31.8 µM (inactive)	> 100 µM (inactive)	> 100 µM (inactive)	42.5 µM (inactive)	68.2 µM (inactive)	45.8 µM (inactive)	39.1 µM (inactive)	> 100 µM (inactive)	96.6 µM (inactive)	37.6 µM (inactive)	–	73.3 µM (inactive)	> 100 µM (inactive)	91 µM (inactive)	44.5 µM (inactive)
COC(=O)C[C@@H]1C(C)(C)[C@@H]2O[C@@]34C[C@@H]2C(=O)[C@]1(C)[C@H]3CC[C@@]1(C)[C@H](c2ccoc2)OC(=O)C[C@]14O	> 100 µM (inactive)	> 100 µM (inactive)	> 100 µM (inactive)	> 100 µM (inactive)	> 100 µM (inactive)	> 100 µM (inactive)	> 100 µM (inactive)	> 100 µM (inactive)	> 100 µM (inactive)	> 100 µM (inactive)	> 100 µM (inactive)	> 100 µM (inactive)	> 100 µM (inactive)	> 100 µM (inactive)	–	> 100 µM (inactive)	> 100 µM (inactive)	> 100 µM (inactive)	–	> 100 µM (inactive)
O=C1CCC2(c3ccc(F)cc3)Nc3cc(Cl)ccc3N12 (stereo unspecified)	> 100 µM (inactive)	60.5 µM (inactive)	> 100 µM (inactive)	63.4 µM (inactive)	> 100 µM (inactive)	54.6 µM (inactive)	–	> 100 µM (inactive)	86.5 µM (inactive)	–	> 100 µM (inactive)	> 100 µM (inactive)	> 100 µM (inactive)	66.1 µM (inactive)	94.2 µM (inactive)	43.4 µM (inactive)	> 100 µM (inactive)	> 100 µM (inactive)	–	76.7 µM (inactive)
C[N+](CCCl)(CCCl)Cc1cccc2cccc([N+](=O)[O-])c12	> 100 µM (inactive)	> 100 µM (inactive)	89.1 µM (inactive)	45.1 µM (inactive)	> 100 µM (inactive)	44.5 µM (inactive)	> 100 µM (inactive)	> 100 µM (inactive)	44.7 µM (inactive)	> 100 µM (inactive)	56.4 µM (inactive)	> 100 µM (inactive)	25.8 µM (inactive)	> 100 µM (inactive)	> 100 µM (inactive)	5.83 µM (inactive)	94.8 µM (inactive)	> 100 µM (inactive)	–	40.5 µM (inactive)
CCOC(=O)c1cc(C2CCN(CC(C)CC)C2=S)c(C(=O)/C=C(/C)N)[nH]1 (stereo unspecified)	> 50 µM (inactive)	> 50 µM (inactive)	> 50 µM (inactive)	> 50 µM (inactive)	–	> 50 µM (inactive)	> 50 µM (inactive)	> 50 µM (inactive)	> 50 µM (inactive)	> 50 µM (inactive)	> 50 µM (inactive)	> 50 µM (inactive)	> 50 µM (inactive)	> 50 µM (inactive)	> 50 µM (inactive)	> 50 µM (inactive)	> 50 µM (inactive)	> 50 µM (inactive)	–	> 50 µM (inactive)
CCOC(=O)/C=C1/Nc2cc(F)c(F)cc2NC1=O	> 100 µM (inactive)	> 100 µM (inactive)	> 100 µM (inactive)	> 100 µM (inactive)	> 100 µM (inactive)	> 100 µM (inactive)	> 100 µM (inactive)	> 100 µM (inactive)	> 100 µM (inactive)	> 100 µM (inactive)	–	> 100 µM (inactive)	> 100 µM (inactive)	> 100 µM (inactive)	> 100 µM (inactive)	–	> 100 µM (inactive)	> 100 µM (inactive)	> 100 µM (inactive)	> 100 µM (inactive)
COC(=O)[C@@]12CC3CN(Cc4c1[nH]c1ccccc41)C2CC3=O	74.8 µM (inactive)	> 100 µM (inactive)	> 100 µM (inactive)	> 100 µM (inactive)	> 100 µM (inactive)	> 100 µM (inactive)	> 100 µM (inactive)	> 100 µM (inactive)	> 100 µM (inactive)	> 100 µM (inactive)	> 100 µM (inactive)	> 100 µM (inactive)	> 100 µM (inactive)	> 100 µM (inactive)	–	–	> 100 µM (inactive)	> 100 µM (inactive)	> 100 µM (inactive)	> 100 µM (inactive)
